The text below walks through data of US20240409585A1, “MACROCYCLIC IMMUNOMODULATORS” (priority 2021, published 2024).

The target in assay [1] is T1, Alexa fluor-647 labeled human PD-L1-Ig binding to Jurkat cell line over-expressing human PD-1 (Homo sapiens, UniProt Q15116).
T1 construct: expressed in transfected cells; host or cells: Jurkat
The experiment in a line: Jurkat-PD-1 Cell Binding High-Content Screening Assay (CBA): Method 3 (Alexa fluor-647 labeled PD-L1-Ig). To be noted: Jurkat-PD-1 cells, Alexa fluor-647 labeled PD-L1-Ig 177 nM. The method in brief: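 Readout by high-content imaging of PFA-fixed, Hoechst-stained cells after 1 h with 177 nM (final) Alexa fluor-647 PD-L1-Ig. Compound was added first to hPD-1 Jurkat cells in RPMI plus 10% FCS for 2 h at 37 °C.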

In assay [2] the target is T2, PD1-PDL1 protein-protein binding interaction [hPD1(25-167)-hIgG, hPD-L1 (19-239)-6xHis] (Homo sapiens, UniProt Q15116).
T2 construct: hPD1(25-167)-hIgG, BMS
Description: HTRF Assay (TR-FRET). To be noted: 5 nM hPD1-hIgG, 5 nM hPD-L1-6xHis, 24 hours at 25° C., head μM. As for the experimental part: A time-resolved fluorescence resonance energy transfer (TR-FRET) assay was employed to measure the inhibition of the PD1-PDL1 protein-protein binding interaction. The reaction buffer was prepared by mixing the HiBlock buffer and LANCE detection buffer (PerkinElmer, TRF1011F and CR97-100) at a 1:1 ratio. Assay reactions contained 5 nM human programmed cell death 1 [hPD1(25-167)-hIgG, BMS], 5 nM human programmed cell death ligand 1 [hPD-L1 (19-239)-6×His, BMS], in the presence of 1 nM LANCE Eu-W1024 Anti-Human IgG (Eu-anti hIgG, PerkinElmer, AD0074) and 20 nM SureLight Allophycocyanin-anti-6×His antibody (APC-anti-6×His, PerkinElmer, AD0059H). Test compounds were evaluated in a 10-point dose-response format with serial three-fold dilutions starting from a 2 uM top concentration. Reactions were carried out in a total volume of 10 uL in 384-well microtiter plates (Proxiplate white, PerkinElmer, 6008289). Plates were sealed and incubated for 24 hours at 25° C. After 24 hours, the TR-FRET signal was measured using a PerkinElmer EnVision multimode plate reader and the resulting ratiometric data set (signal at 665 nm/615 nm, multiplied by a factor of 10,000) was recorded. The concentration giving half-maximal inhibition (the IC50) was obtained by fitting the data to a four-parameter logistic equation using Graphpad Prism or Dotmatics.
For orientation: Time-resolved FRET reads energy transfer from a long-lived donor to a nearby acceptor.

Where two headings read alike, the source gives them in different places. Numbered stars: 1 amine (or outer) side, 2 acyl side, 3 side chain; on linkers, the order of the positions; unused ones are H or OH. Bridge positions count the residues as written; N and C are the ends. Square brackets hold non-standard residues; d marks the D form. Peptide text beside a SMILES is read from it. * marks the point of attachment. Bip(4'-COOH) = N[C@@H](Cc1ccc(-c2ccc(C(=O)O)cc2)cc1)C(=O)O; Phe(4-CH2CH2COOH) = N[C@@H](Cc1ccc(CCC(=O)O)cc1)C(=O)O; Phe(3-CF3) = N[C@@H](Cc1cccc(C(F)(F)F)c1)C(=O)O; Ala(morpholin-4-yl) = N[C@@H](CN1CCOCC1)C(=O)O; Phe(4-COOH) = N[C@@H](Cc1ccc(C(=O)O)cc1)C(=O)O; Phe(2-CF3) = N[C@@H](Cc1ccccc1C(F)(F)F)C(=O)O; Bip = N[C@@H](Cc1ccc(-c2ccccc2)cc1)C(=O)O; Phe(4-Cl) = N[C@@H](Cc1ccc(Cl)cc1)C(=O)O; Abu(3R-NH2) = C[C@@H](N)[C@H](N)C(=O)O; Phe(3-Me) = Cc1cccc(C[C@H](N)C(=O)O)c1; Dap(CONH2) = NC(=O)NC[C@H](N)C(=O)O; Glutaryl = O=C(CCCC(=O)[*:2])[*:1]; hCha = N[C@@H](CCC1CCCCC1)C(=O)O; hPhe = N[C@@H](CCc1ccccc1)C(=O)O; Cha = N[C@@H](CC1CCCCC1)C(=O)O; Carboxymethyl = O=C(O)C*; NMeA = CN[C@@H](C)C(=O)O; Orn = NCCC[C@H](N)C(=O)O; Dab = NCC[C@H](N)C(=O)O; Dap = NC[C@H](N)C(=O)O

T2 sequence (Q15116 25-167): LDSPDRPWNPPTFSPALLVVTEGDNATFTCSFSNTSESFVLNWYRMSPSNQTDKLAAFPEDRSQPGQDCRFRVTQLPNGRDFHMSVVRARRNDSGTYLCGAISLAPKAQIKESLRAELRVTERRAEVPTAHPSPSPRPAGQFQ
T1 sequence (Q15116 25-288): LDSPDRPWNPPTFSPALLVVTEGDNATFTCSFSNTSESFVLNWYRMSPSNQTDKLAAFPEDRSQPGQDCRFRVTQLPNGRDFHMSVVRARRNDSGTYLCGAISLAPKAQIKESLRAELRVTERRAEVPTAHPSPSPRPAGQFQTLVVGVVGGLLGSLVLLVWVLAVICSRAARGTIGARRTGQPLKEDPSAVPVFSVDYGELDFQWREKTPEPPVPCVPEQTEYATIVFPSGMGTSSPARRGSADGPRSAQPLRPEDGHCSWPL

For the compound `Cc1cccc(C[C@@H]2NC(=O)[C@H](CC(=O)O)NC(=O)[C@H](Cc3ccc(OCC(=O)O)cc3)NC(=O)[C@H](CN3CCOCC3)NC(=O)CSC[C@@H](C(=O)N[C@@H](CCN)C(N)=O)NC(=O)[C@H](CCC(N)=O)NC(=O)[C@H](C(C)C)NC(=O)[C@H](CC3CCCCC3)NC(=O)[C@H](CCN)NC(=O)[C@@H](CC(C)C)NC(=O)[C@H](C)N(C)C(=O)[C@H](CCC(N)=O)NC(=O)[C@H](Cc3ccc(-c4ccccc4)cc3)NC(=O)[C@H](CCc3ccccc3)NC2=O)c1` [Example 5221] ({CH2CO}-[Ala(morpholin-4-yl)]Y(Carboxymethyl)D[Phe(3-Me)][hPhe][Bip]Q[NMeA][dL][Dab][Cha]VQC[Dab]-NH2; thioether N-14), the IC50 worked out at 3 nM in assay [1] (nM, read-out: CBA Method 3) and 0.01 µM in assay [2].

For `Cc1cccc(C[C@@H]2NC(=O)[C@H](CC(=O)O)NC(=O)[C@H](Cc3ccc(OCC(=O)O)cc3)NC(=O)[C@H](CCC3CCCCC3)NC(=O)CSC[C@@H](C(=O)N[C@@H](CCN)C(N)=O)NC(=O)[C@H](CCCN)NC(=O)[C@H](C(C)C)NC(=O)[C@H](CC3CCCCC3)NC(=O)[C@H](CCN)NC(=O)[C@@H](CC(C)C)NC(=O)[C@H](C)N(C)C(=O)[C@H](CCC(N)=O)NC(=O)[C@H](Cc3ccc(-c4ccccc4)cc3)NC(=O)[C@H](Cc3ccc(C(=O)O)cc3)NC2=O)c1` [Example 5186] ({CH2CO}-[hCha]Y(Carboxymethyl)D[Phe(3-Me)][Phe(4-COOH)][Bip]Q[NMeA][dL][Dab][Cha]V[Orn]C[Dab]-NH2; thioether N-14), the IC50 in assay [1] (nM, read-out: CBA Method 3) is 4.5 nM; in assay [2] it was 0.03 µM.

For the compound `CC(C)C[C@H]1NC(=O)[C@H](C)N(C)C(=O)[C@H](CCC(N)=O)NC(=O)[C@H](Cc2ccc(-c3ccccc3)cc2)NC(=O)[C@H](Cc2ccc(OCC(=O)O)cc2)NC(=O)[C@H](Cc2cccc(C(F)(F)F)c2)NC(=O)[C@H](CC(=O)O)NC(=O)[C@H](Cc2ccc(O)cc2)NC(=O)[C@H](CN2CCOCC2)NC(=O)CSC[C@@H](C(=O)N[C@@H](CCN)C(N)=O)NC(=O)[C@H](CCCN)NC(=O)[C@H](C(C)C)NC(=O)[C@H](CC2CCCCC2)NC(=O)[C@H](CCN)NC1=O` [Example 5237] ({CH2CO}-[Ala(morpholin-4-yl)]YD[Phe(3-CF3)]Y(Carboxymethyl)[Bip]Q[NMeA][dL][Dab][Cha]V[Orn]C[Dab]-NH2; thioether N-14), the IC50 is 4.4 nM in assay [1] (nM, read-out: CBA Method 3) and 0.03 µM in assay [2].

As to `Cc1cccc(C[C@@H]2NC(=O)[C@H](CC(=O)O)NC(=O)[C@H](Cc3ccc(OCC(=O)O)cc3)NC(=O)[C@H](Cc3ccc(-c4ccc(C(=O)O)cc4)cc3)NC(=O)CSC[C@@H](C(=O)N[C@@H](CCN)C(N)=O)NC(=O)[C@H](CCCN)NC(=O)[C@H](C(C)C)NC(=O)[C@H](CC3CCCCC3)NC(=O)[C@H](CCN)NC(=O)[C@@H](CC(C)C)NC(=O)[C@H](C)N(C)C(=O)[C@H](CCC(N)=O)NC(=O)[C@H](Cc3ccc(-c4ccccc4)cc3)NC(=O)[C@H](Cc3ccc(C(=O)O)cc3)NC2=O)c1` [Example 5177] ({CH2CO}-[Bip(4'-COOH)]Y(Carboxymethyl)D[Phe(3-Me)][Phe(4-COOH)][Bip]Q[NMeA][dL][Dab][Cha]V[Orn]C[Dab]-NH2; thioether N-14), the IC50 in assay [1] (nM, read-out: CBA Method 3) came out at 7.6 nM; in assay [2], 0.03 µM.

In the case of `Cc1cccc(C[C@@H]2NC(=O)[C@H](CC(=O)O)NC(=O)[C@H](Cc3ccc(OCC(=O)O)cc3)NC(=O)[C@H](Cc3ccc(Cl)cc3)NC(=O)CSC[C@@H](C(=O)N[C@@H](CCN)C(N)=O)NC(=O)[C@H](CCCN)NC(=O)[C@H](C(C)C)NC(=O)[C@H](CC3CCCCC3)NC(=O)[C@H](CCN)NC(=O)[C@@H](CC(C)C)NC(=O)[C@H](C)N(C)C(=O)[C@H](CCC(N)=O)NC(=O)[C@H](Cc3ccc(-c4ccccc4)cc3)NC(=O)[C@H](Cc3ccc(C(=O)O)cc3)NC2=O)c1` [Example 5288] ({CH2CO}-[Phe(4-Cl)]Y(Carboxymethyl)D[Phe(3-Me)][Phe(4-COOH)][Bip]Q[NMeA][dL][Dab][Cha]V[Orn]C[Dab]-NH2; thioether N-14), the IC50 in assay [1] (nM, read-out: CBA Method 3) turned out to be 1 nM; in assay [2], 0.08 µM.

`CC(C)C[C@H]1NC(=O)[C@H](C)N(C)C(=O)[C@H](CCC(N)=O)NC(=O)[C@H](Cc2ccc(-c3ccccc3)cc2)NC(=O)[C@H](Cc2ccc(OCC(=O)O)cc2)NC(=O)[C@H](Cc2cccc(C(F)(F)F)c2)NC(=O)[C@H](CC(=O)O)NC(=O)[C@H](Cc2ccc(O)cc2)NC(=O)[C@H]([C@@H](C)N)NC(=O)CSC[C@@H](C(=O)N[C@@H](CCN)C(N)=O)NC(=O)[C@H](CCCN)NC(=O)[C@H](C(C)C)NC(=O)[C@H](CC2CCCCC2)NC(=O)[C@H](CCN)NC1=O` [Example 5239] ({CH2CO}-[Abu(3R-NH2)]YD[Phe(3-CF3)]Y(Carboxymethyl)[Bip]Q[NMeA][dL][Dab][Cha]V[Orn]C[Dab]-NH2; thioether N-14): the IC50 came to 20 nM in assay [1] (head μM, read-out: CBA Method 3 μM) and 0.02 µM in assay [2].

Regarding `Cc1cccc(C[C@@H]2NC(=O)[C@H](CC(=O)O)NC(=O)[C@H](Cc3ccc(CCC(=O)O)cc3)NC(=O)[C@H](CNC(N)=O)NC(=O)CSC[C@@H](C(=O)N[C@@H](CCN)C(N)=O)NC(=O)[C@H](CCCN)NC(=O)[C@H](C(C)C)NC(=O)[C@H](CC3CCCCC3)NC(=O)[C@H](CCN)NC(=O)[C@@H](CC(C)C)NC(=O)[C@H](C)N(C)C(=O)[C@H](CCC(N)=O)NC(=O)[C@H](Cc3ccc(-c4ccccc4)cc3)NC(=O)[C@H](Cc3ccc(C(=O)O)cc3)NC2=O)c1` [Example 5298] ({CH2CO}-[Dap(CONH2)][Phe(4-CH2CH2COOH)]D[Phe(3-Me)][Phe(4-COOH)][Bip]Q[NMeA][dL][Dab][Cha]V[Orn]C[Dab]-NH2; thioether N-14), the IC50 in assay [1] (nM, read-out: CBA Method 3) was 0.5 nM; in assay [2], 0.01 µM.

Consider `CC(C)C[C@H]1NC(=O)[C@H](C)N(C)C(=O)[C@H](Cc2ccc(C(=O)O)cc2)NC(=O)[C@H](Cc2ccc(-c3ccccc3)cc2)NC(=O)[C@H](Cc2ccc(C(=O)O)cc2)NC(=O)[C@H](Cc2cccc(C(F)(F)F)c2)NC(=O)[C@H](CC(=O)O)NC(=O)[C@H](Cc2ccc(C(=O)O)cc2)NC(=O)[C@H](CC2CCCCC2)NC(=O)CSC[C@@H](C(=O)N[C@@H](CCN)C(N)=O)NC(=O)[C@H](CNC(=O)CCCC(=O)O)NC(=O)[C@H](C(C)C)NC(=O)[C@H](CC2CCCCC2)NC(=O)[C@H](CCN)NC1=O` [Example 5229] ({CH2CO}-[Cha][Phe(4-COOH)]D[Phe(3-CF3)][Phe(4-COOH)][Bip][Phe(4-COOH)][NMeA][dL][Dab][Cha]V[Dap](Glutaryl)C[Dab]-NH2; thioether N-14), for which the IC50 in assay [1] (nM, read-out: CBA Method 3) worked out at 3.8 nM; in assay [2], 0.04 µM.

For the compound `CC(C)C[C@H]1NC(=O)[C@H](C)N(C)C(=O)[C@H](CCC(N)=O)NC(=O)[C@H](Cc2ccc(-c3ccccc3)cc2)NC(=O)[C@H](CCc2ccccc2)NC(=O)[C@H](Cc2cccc(C(F)(F)F)c2)NC(=O)[C@H](CC(=O)O)NC(=O)[C@H](Cc2ccc(O)cc2)NC(=O)[C@H]([C@@H](C)N)NC(=O)CSC[C@@H](C(=O)N[C@@H](CCN)C(N)=O)NC(=O)[C@H](CCCN)NC(=O)[C@H](C(C)C)NC(=O)[C@H](CC2CCCCC2)NC(=O)[C@H](CCN)NC1=O` [Example 5236] ({CH2CO}-[Abu(3R-NH2)]YD[Phe(3-CF3)][hPhe][Bip]Q[NMeA][dL][Dab][Cha]V[Orn]C[Dab]-NH2; thioether N-14), the IC50 came out at 1.1 nM in assay [1] (nM, read-out: CBA Method 3) and 0.1 µM in assay [2].

For `Cc1cccc(C[C@@H]2NC(=O)[C@H](CC(=O)O)NC(=O)[C@H](Cc3ccc(OCC(=O)O)cc3)NC(=O)[C@H](Cc3ccccc3C(F)(F)F)NC(=O)CSC[C@@H](C(=O)N[C@@H](CCN)C(N)=O)NC(=O)[C@H](CCCN)NC(=O)[C@H](C(C)C)NC(=O)[C@H](CC3CCCCC3)NC(=O)[C@H](CCN)NC(=O)[C@@H](CC(C)C)NC(=O)[C@H](C)N(C)C(=O)[C@H](CCC(N)=O)NC(=O)[C@H](Cc3ccc(-c4ccccc4)cc3)NC(=O)[C@H](Cc3ccc(C(=O)O)cc3)NC2=O)c1` [Example 5292] ({CH2CO}-[Phe(2-CF3)]Y(Carboxymethyl)D[Phe(3-Me)][Phe(4-COOH)][Bip]Q[NMeA][dL][Dab][Cha]V[Orn]C[Dab]-NH2; thioether N-14), the IC50 came to 0.2 nM in assay [1] (nM, read-out: CBA Method 3) and 0.03 µM in assay [2].
